Laboratory results reported in the supplement of paper PMC10307832.

What was measured:
Assay in all cases: relative viability (nuclei count vs DMSO), 5 days (fraction); higher = more cells survive
[1] = compound: C1=CC=C2C(=C1)N=C(S2)C(C#N)C3=NC(=NC=C3)NCCC4=CN=CC=C4 + COc1cc2c(Oc3ccc(NC(=O)C4(C(=O)Nc5ccc(F)cc5)CC4)cc3F)ccnc2cc1OCCCN1CCOCC1 [Foretinib] (partner 0.25 µM)
Method in brief: (§1)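 Cells from lung cancer lines were seeded into 1536-well plates and, one day later, dosed by pin tool. Treatments were either a single drug or a fixed dose of an anchor drug with five library-drug doses (not always all listed) in √10 steps. After 5 days, nuclei were stained in a one-step fixation (final 0.05% Triton X-100, 1% formaldehyde, 1 ug/ml Hoechst) and counted on 4× images, and relative viability is the treated-to-vehicle nuclei ratio, as the median of duplicate plates.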

NVP-TAE684 + Dasatinib = compound: COc1cc(N2CCC(N3CCN(C)CC3)CC2)ccc1Nc1ncc(Cl)c(Nc2ccccc2S(=O)(=O)C(C)C)n1 [NVP-TAE684] + Cc1nc(Nc2ncc(C(=O)Nc3c(C)cccc3Cl)s2)cc(N2CCN(CCO)CC2)n1 [Dasatinib] (partner 0.075 µM)
Method in brief: as §1

Vandetanib + Alpelisib = compound: COc1cc2/c(=N/c3ccc(Br)cc3F)nc[nH]c2cc1OCC1CCN(C)CC1 [Vandetanib] + Cc1nc(NC(=O)N2CCC[C@H]2C(N)=O)sc1-c1ccnc(C(C)(C)C(F)(F)F)c1 [Alpelisib] (partner 2 µM)
Method in brief: as §1

Vandetanib + Phenformin = compound: COc1cc2/c(=N/c3ccc(Br)cc3F)nc[nH]c2cc1OCC1CCN(C)CC1 [Vandetanib] + N=C(N)NC(=N)NCCc1ccccc1 [Phenformin] (partner 250 µM)
Method in brief: as §1

| Cell Line | relative viability ([1]; first compound 0.005 µM) | relative viability ([1]; first compound 0.01581 µM) | relative viability ([1]; first compound 0.1581 µM) | relative viability ([1]; first compound 0.5 µM) | relative viability (NVP-TAE684 + Dasatinib; first compound 0.2 µM) | relative viability (NVP-TAE684 + Dasatinib; first compound 0.6325 µM) | relative viability (NVP-TAE684 + Dasatinib; first compound 2 µM) | relative viability (Vandetanib + Alpelisib; first compound 0.02 µM) | relative viability (Vandetanib + Alpelisib; first compound 0.06325 µM) | relative viability (Vandetanib + Alpelisib; first compound 0.2 µM) | relative viability (Vandetanib + Alpelisib; first compound 0.6325 µM) | relative viability (Vandetanib + Alpelisib; first compound 2 µM) | relative viability (Vandetanib + Phenformin; first compound 0.02 µM) | relative viability (Vandetanib + Phenformin; first compound 0.2 µM) | relative viability (Vandetanib + Phenformin; first compound 0.6325 µM) | relative viability (Vandetanib + Phenformin; first compound 2 µM) | relative viability ([1]; first compound 0.05 µM) | relative viability (Vandetanib + Phenformin; first compound 0.06325 µM) |
| --- | --- | --- | --- | --- | --- | --- | --- | --- | --- | --- | --- | --- | --- | --- | --- | --- | --- | --- |
| NCI-H2347 | 1.1 | 0.821 | 0.662 | 1.17 | 0.501 | 0.307 | 0.293 | 1.01 | 0.591 | 1.05 | 1.28 | 1.03 | 0.336 | 0.256 | 0.403 | 0.493 |  |  |
| NCI-H2405 | 1.02 | 1.04 | 1.07 | 1 | 0.226 | 0.178 | 0.154 | 0.813 | 0.405 | 0.733 | 0.958 | 0.677 | 0.376 | 0.374 | 0.39 | 0.202 | 1.04 | 0.302 |
| NCI-H3122 | 0.839 | 0.87 | 1.05 | 0.969 | 0.239 | 0.119 | 0.0896 | 0.781 | 0.756 | 0.778 | 0.765 | 0.822 | 0.348 | 0.327 | 0.303 | 0.333 | 0.917 | 0.374 |
| PC-3 [JPC-3] | 0.984 | 1.12 | 1.14 | 0.961 | 0.942 | 0.979 | 0.649 | 1.03 | 1 | 0.982 | 0.736 | 0.507 | 0.471 | 0.496 | 0.334 | 0.331 | 1.07 | 0.466 |
| PC-14 | 0.899 | 1.05 | 1.08 | 0.819 | 0.242 | 0.11 | 0.0369 | 0.922 | 0.846 | 0.911 | 0.447 | 0.182 | 0.576 | 0.215 | 0.235 | 0.125 | 0.917 | 0.478 |
| RERF-LC-KJ | 0.966 | 0.826 | 0.882 | 0.762 | 0.667 | 0.596 | 0.327 | 0.82 | 0.694 | 0.833 | 0.774 | 0.678 | 0.436 | 0.37 | 0.375 | 0.335 | 0.86 | 0.379 |
| SK-LU-1 | 0.749 | 0.824 | 0.991 | 0.884 | 0.188 | 0.138 | 0.0928 | 1.06 | 0.594 | 1.02 | 0.926 | 0.758 | 0.518 | 0.464 | 0.491 | 0.558 | 0.867 | 0.405 |
| SK-MES-1 | 0.836 | 1.07 | 1.11 | 0.993 | 0.317 | 0.159 | 0.242 | 0.913 | 0.929 | 0.86 | 0.851 | 0.646 | 0.657 | 0.62 | 0.581 | 0.471 | 0.863 | 0.608 |
| SW 1573 | 0.963 | 0.792 | 0.994 | 0.892 | 0.236 | 0.227 | 0.0788 | 0.75 | 0.726 | 0.753 | 0.969 | 0.743 | 0.357 | 0.397 | 0.347 | 0.351 | 0.949 | 0.382 |
